Test results reported in US20070093548A1 (Wyeth, priority 2005, published 2007).
pIC50: −log10 of the molar value. Where two headings read alike, the source gives them in different places.

How the values were obtained:
[1] = tested on: alkaline phosphatase activity in T47D cells; assay: T47D Cell Alkaline Phosphatase Assay; type: cell-based, human; details: antagonist mode, in the presence of 1 nM progesterone, read-out: Example 18A 'T47D Cell Alkaline Phosphatase Assay' IC50
Protocol: A. Effects of Progestins and Antiprogestins on Alkaline Phosphatase Activity in T47D Cells—T47D Cell Alkaline Phosphatase Assay
The purpose of this assay is to identify progestins or antiprogestins by determining a compound's effect on alkaline phosphatase activity in T47D cells. The materials and methods are as follows.
Culture medium: DMEM:F12 (1:1) (GIBCO, BRL) supplemented with 5% (v/v) charcoal stripped fetal bovine serum (not heat-inactivated), 100 U/ml penicillin, 100 ug/ml streptomycin, and 2 mM GlutaMax (GIBCO, BRL).
Alkaline phosphatase assay buffer:
I. 0.1M Tris-HCl, pH 9.8, containing 0.2% Triton X-100
II. 0.1M Tris-HCl, pH 9.8, containing 4 mM p-nitrophenyl phosphate (Sigma).
Frozen T47D cells are thawed in a 37° C. water bath and diluted to 280,000 cells/ml in culture medium. To each well in a 96-well plate (Falcon, Becton Dickinson Labware), 180 μl of diluted cell suspension is added. 20 μl of reference or test compounds diluted in the culture medium is then added to each well. […] The cells are incubated at 37° C. in a 5% CO2/humidified atmosphere for 24 hours. NOTE: For high throughput screening, one concentration of each compound is tested at 0.3 μg/ml. Based on an average molecular weight of 300 g/mol for the compounds in the library, the concentration is approximately 1 μM.
At the end of treatment, the medium is removed from the plate. 50 μl of assay buffer I is added to each well. The plates are shaken in a titer plate shaker for 15 min. Then 150 μl of assay buffer II is added to each well.
Subsequent dose response data for screening hits will be evaluated as described below. Analysis of dose-response data. For reference and test compounds, a dose response curve is generated for dose (X-axis) vs. the rate of enzyme reaction (slope) (Y-axis). Square root-transformed data are used for analysis of variance and nonlinear dose response curve fitting for both agonist and antagonist modes. Huber weighting is used to downweight the effects of outliers. EC50 or IC50 values are calculated from the retransformed values.
Percent (%) of induction for agonists at the tested concentrations. […] The default concentration is in the nM range.

[2] = tested on: alkaline phosphatase activity in T47D cells; assay: T47D Cell Alkaline Phosphatase Assay; type: cell-based; details: Homo sapiens, read-out: Example 18A 'T47D Cell Alkaline Phosphatase Assay' Inhibition (%)
[3] = target: T1, progesterone receptor (PR) (Homo sapiens, UniProt P06401); assay: Progesterone Receptor Whole Cell Competition Binding Assay Using T47D Cells; details: 3H-progesterone 3 nM, read-out: Example 18B 'T47D PR whole cell binding Assay' IC50
T1 construct: in live, intact (whole) cells, using the human breast carcinoma T47D cell line; endogenous in cells; host or cells: T47D human breast carcinoma cells (live, intact)
T1 sequence (P06401 1-933): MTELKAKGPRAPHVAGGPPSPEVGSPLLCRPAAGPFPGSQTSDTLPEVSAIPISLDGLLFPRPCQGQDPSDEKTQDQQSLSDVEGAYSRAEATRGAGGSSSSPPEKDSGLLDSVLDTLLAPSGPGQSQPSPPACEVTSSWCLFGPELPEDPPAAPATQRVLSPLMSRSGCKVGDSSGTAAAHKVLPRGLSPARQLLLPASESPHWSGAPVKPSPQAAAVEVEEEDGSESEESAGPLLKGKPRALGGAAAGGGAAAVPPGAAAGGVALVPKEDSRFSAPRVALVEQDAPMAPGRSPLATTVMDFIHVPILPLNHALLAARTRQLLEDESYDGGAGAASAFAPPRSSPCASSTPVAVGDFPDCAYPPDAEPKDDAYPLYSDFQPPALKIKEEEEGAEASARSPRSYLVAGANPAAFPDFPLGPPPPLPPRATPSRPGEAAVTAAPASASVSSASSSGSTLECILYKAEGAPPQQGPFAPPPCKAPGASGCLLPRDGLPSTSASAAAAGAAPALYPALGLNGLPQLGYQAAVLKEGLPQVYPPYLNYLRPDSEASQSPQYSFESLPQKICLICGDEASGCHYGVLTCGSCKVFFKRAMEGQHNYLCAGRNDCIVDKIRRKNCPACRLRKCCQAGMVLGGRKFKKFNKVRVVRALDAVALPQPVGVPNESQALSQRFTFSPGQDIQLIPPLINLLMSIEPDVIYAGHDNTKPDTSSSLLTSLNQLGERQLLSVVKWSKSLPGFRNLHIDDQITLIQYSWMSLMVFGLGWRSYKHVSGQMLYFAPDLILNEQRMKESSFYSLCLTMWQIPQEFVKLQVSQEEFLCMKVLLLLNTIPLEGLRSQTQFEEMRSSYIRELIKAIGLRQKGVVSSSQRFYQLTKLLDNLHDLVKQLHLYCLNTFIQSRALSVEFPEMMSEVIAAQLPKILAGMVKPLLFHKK
Protocol: 1. Culture medium: 5% RC: phenol red free DMEM:F12 (1:1) (GIBCO, BRL) supplemented with 5% (v/v) charcoal stripped fetal bovine serum (not heat-inactivated), 100 U/ml penicillin, 100 ug/ml streptomycin, and 2 mM GlutaMax (GIBCO, BRL).
2. T47D cell culture: T47D cells are maintained in 10% RC media at 37° C. in a 5% CO2/humidified atmosphere and need to be split twice weekly for proper response. Cells are plated in 10% RC the day before binding assay at 50,000 cells per well in the white, clear bottom plates purchased through VWR or Perkin Elmer.
Cells plated the day prior to the assay in white clear bottom plates are used. A master compound plate is set up containing control and test compounds at 20× final desired concentration for the competition binding. A typical dose range of 20× concentrations are (in nM); 200,000; 20,000; 6000; 2000; 600; 200; 20; and 2. Final concentrations are then (in nM); 10,000; 1000; 300; 100; 30; 10; 1; 0.1.
Media on cells is replaced with 180 μl of 5% RC. […] Compounds are incubated for 3 hrs at 37° C. […] Following incubation, media is carefully removed and cells are washed 3× with 200 μl 5% RC each wash. 50 μl of liquid scintillation cocktail is added and the plates are shaken vigorously for a minimum of 15 minutes.
Square root-transformed data are used for analysis of variance and calculation of IC50 SAS software (SAS Institute, Inc.) is used for all the statistical analysis.

SMILES | pIC50 ([1]; Homo sapiens, T47D, 24 h) | melting point | pIC50 [3] | other results
COc1ccc2c(oc3ccc(C#N)cc32)c1C(C)C [Example 9, 6-isopropyl-7-methoxydibenzo[b,d]furan-2-carbonitrile] | 7.32 |  |  | 
COc1cc2oc3ccc(C#N)cc3c2cc1F [Example 7, 8-fluoro-7-methoxydibenzo[b,d]furan-2-carbonitrile] |  | 206 to 208 °C |  | inhibition at 3 µM [2]: 65%
CCC(C)c1c(O)ccc2c1oc1ccc(C#N)cc12 (single isomer, unassigned; (+)) [Example 14, (+)-6-sec-butyl-7-hydroxydibenzo[b,d]furan-2-carbonitrile] |  |  | 7.38 | pIC50 [1]: 7.66
CCC(C)c1c(OC)ccc2c1oc1ccc(C#N)cc12 (single isomer, unassigned; (-)) [Example 17, (−)-6-sec-butyl-7-methoxydibenzo[b,d]furan-2-carbonitrile] |  |  |  | pIC50 [1]: 7.52
N#Cc1ccc2oc3c(-c4ccccc4F)c(O)c(F)cc3c2c1 [Example 8, 8-fluoro-6-(2-fluorophenyl)-7-hydroxydibenzo[b,d]furan-2-carbonitrile] |  |  |  | inhibition at 3 µM [2]: 40%
N#Cc1ccc2oc3cc(O)c(F)cc3c2c1 [Example 6, 8-fluoro-7-hydroxydibenzo[b,d]furan-2-carbonitrile] |  | 270 °C (dec.) |  | 
CCC(C)c1c(OC)ccc2c1oc1ccc(C#N)cc12 (single isomer, unassigned; (+)) [Example 16, (+)-6-sec-butyl-7-methoxydibenzo[b,d]furan-2-carbonitrile] |  |  |  | pIC50 [1]: 7.89
CCC(C)c1c(O)ccc2c1oc1ccc(C#N)cc12 (single isomer, unassigned; (-)) [Example 15, (−)-6-sec-butyl-7-hydroxydibenzo[b,d]furan-2-carbonitrile] |  |  | 7.09 | pIC50 [1]: 6.83
N#Cc1ccc2oc3cc(O)ccc3c2c1 [Example 2, 7-hydroxydibenzo[b,d]furan-2-carbonitrile] | 6.27 | 270 to 271 °C |  | 
CCC(C)c1c(OC)ccc2c1oc1ccc(C#N)cc12 (racemic) [Example 12, 6-sec-butyl-7-methoxydibenzo[b,d]furan-2-carbonitrile] | 7.73 | 80 to 82 °C | 7.22 | 
CC(C)c1c(O)ccc2c1oc1ccc(C#N)cc12 [Example 10, 7-hydroxy-6-isopropyldibenzo[b,d]furan-2-carbonitrile] | 7.55 | 180 to 182 °C | 7.68 | 
Cc1ccccc1-c1c(O)c(F)cc2c1oc1ccc(C#N)cc12 [Example 4, 8-fluoro-7-hydroxy-6-(2-methylphenyl)dibenzo[b,d]furan-2-carbonitrile] |  |  |  | inhibition at 3 µM [2]: 50%

More lines, main results first:

pIC50 ([1]; Homo sapiens, T47D, 24 h) | melting point | pIC50 [3] | SMILES | other results
 | 270 °C (dec.) |  | N#Cc1ccc2oc3c(Br)c(O)c(F)cc3c2c1 [Example 3, 6-bromo-8-fluoro-7-hydroxydibenzo[b,d]furan-2-carbonitrile] | 
6.59 |  |  | COc1ccc2c(c1)oc1ccc(C#N)cc12 [Example 1, 7-methoxydibenzo[b,d]furan-2-carbonitrile] | 
7.72 | 206 to 207 °C | 7.44 | CCC(C)c1c(O)ccc2c1oc1ccc(C#N)cc12 (racemic) [Example 13, 6-sec-butyl-7-hydroxydibenzo[b,d]furan-2-carbonitrile] | 
7.30 |  |  | N#Cc1ccc2oc3c(C4CCCC4)c(O)ccc3c2c1 [Example 11, 6-cyclopentyl-7-hydroxydibenzo[b,d]furan-2-carbonitrile] | 
